Broadly, the melting point is the temperature, or range, at which the solid turns liquid. Regarding `O=C1CCN(Cc2ccc([N+](=O)[O-])cc2)CC1C(c1ccc(F)cc1)c1ccc(F)cc1` (centres undefined), the melting point fell in the range of 118 to 119 °C.
For `COC(=O)C(OC)(c1ccccc1)c1nc(OC)cc(OC)n1` (centres undefined) the value was 72 to 76 °C; for `Cn1c(=O)n(C2CCNCC2)c2ccc(Cl)cc21`, 201 °C; for `CC(C)(C)NS(=O)(=O)Cc1ccccc1N`, 115 to 117 °C.
Regarding `O=C(Nc1cccc2[nH]ccc12)c1ccc(Cl)cc1OCC1CO1` (centres undefined), the melting point stood at 194 °C.
Turning to `Cc1nnc(-c2cc3c(OC[C@@H](O)CN4CCC(c5cccc6ccccc56)CC4)cccc3[nH]2)o1`, the melting point lay in the range of 203 to 205 °C.
The compound `CC(C)(C)OC(=O)NCC(=O)c1cccnc1` showed a melting point of 98 to 99 °C.
As for `FC(F)(F)c1ccc(OC2(c3ccccc3)CCNCC2)cc1`, the figure is 104 to 105 °C.
The compound `COc1ccc(CS[C@@H]2C[C@@H](CSCc3ccccc3)N(S(C)(=O)=O)C2)cc1` registered a melting point of 69 to 71 °C.
For `O=C(Oc1ccccc1)N1Cc2ccccc2C2(Cc3ccccc3O2)C1` (centres undefined) the value was 128 °C; for `CSCC[C@H](NC(=O)[C@@H]1CCC(=O)N1)C(=O)N[C@@H](C)C(=O)N[C@H](C(=O)N[C@@H](CCCCN)C(=O)O)C(C)C`, 238 to 242 °C; for `COc1cc(C)c(Br)cc1C`, 38.4 °C.
As for `COC=C(C(=O)OC)C1=C(C=Cc2ccccc2)CCC1`, the figure is 107 °C; as for `CSC(=NC#N)N1CCc2nc(N)sc2C1`, 152 to 155 °C; as for `N#Cc1ccc(C(=C2C3CC4CC(C3)CC2C4)c2nc[nH]n2)cc1`, 105 °C.
For `COc1ccc(COc2cccnc2NC(=S)Nc2ccc(Cl)cc2)cc1` the value was 136 to 138 °C; for `NC(C(=O)O)c1ccc(CC(=O)O)cc1` (centres undefined), 250 °C.
Consider `CCCCCCCCCCCCCc1cc(C(=O)O)c[nH]1`, for which the melting point is 82 to 84 °C.
For `O=C(NCc1cccs1)C1CCCCC1` the value was 105 °C.
The compound `CC1CC(=O)NN=C1c1ccc(N2CCN(C(=O)NCCCc3c[nH]cn3)CC2)c([N+](=O)[O-])c1` (centres undefined) showed a melting point of 182 °C.
For `CC(C)(C)c1ccc(/C=N/OCCOc2ccc(C(=O)O)c(OC(=O)c3ccccc3)c2)cc1` the value was 129 to 131 °C.
For the compound `CNC1CCN(C(=O)CC2=C(n3nc(-c4c(-c5ccccc5)nn5ccccc45)ccc3=O)CCCC2)CC1`, the melting point fell in the range of 101 to 105 °C.
As for `CCN(CC)C(=O)c1c(OC)cccc1S(N)(=O)=O`, the figure is 190 to 194 °C; as for `CC(c1cccnc1)c1c[nH]c(=S)[nH]c1=O` (centres undefined), 225 to 228 °C; as for `CN(C)c1ccc(-c2nc3c(N[C@H]4[C@@H](C(N)=O)[C@@H]5C=C[C@H]4C5)c(Br)cnc3[nH]2)cc1`, 264 to 265 °C.
For `CC(C)(C)c1cc(CCc2ccccc2NC(=O)NC2CCN(Cc3ccc(F)cc3)CC2)cc(C(C)(C)C)c1O` the value was 174 to 175 °C.
As for `CC(=O)C1CC2=C(CO1)C(=O)c1ccc(O)cc1C2=O` (centres undefined), the figure is 169 to 170 °C; as for `CS(=O)(=O)O[C@H]1C[C@@H](C(=O)OCc2ccccc2)N(S(C)(=O)=O)C1`, 91 to 92 °C.
For `CC#CCOc1ccc([S@](=O)[C@@H](CCCCCC)C(=O)O)cc1`, the melting point worked out at 112 °C.
On to `NC(=O)c1nc(-c2c(Cl)cc(C(F)(F)F)cc2Cl)[nH]c1C(N)=O`, for which the melting point was in the range of 306 to 308 °C.
For the compound `Nc1cccc(-n2nnnc2S)c1`, the melting point came to 205 °C.
As for `COc1cccc(Oc2c(NS(=O)(=O)c3ccc(C(C)(C)C)cc3)ncnc2SCCOc2ncccn2)c1`, the figure is 168 °C; as for `Cc1nc(Cl)c(Cl)n1CCCCN1CCN(c2ncc(O)cn2)CC1`, 154 to 156 °C.
With `CC(C)OC(=O)C1=C(c2ccccc2)C(c2ccccc2)OC1=O` (centres undefined), the melting point lay in the range of 120 to 122 °C.
For `CC(C)(C)OC(=O)N[C@@H](Cc1ccccc1)C(=O)NCCCN1CCN(CCCNc2cccc3c2C(=O)c2ccccc2C3=O)CC1` the value was 168 °C; for `CCOc1nc2cccc(C(=O)OC)c2n1Cc1ccc(-c2ccccc2C#N)cc1`, 168 to 170 °C; for `CS(=O)(=O)Nc1ccc(NCC2CCNCC2)c(C(=O)Nc2ccc(Cl)cn2)c1`, 223 to 226 °C.
As for `CC(c1ccccc1)C(C)([N+](=O)[O-])[N+](=O)[O-]` (centres undefined), the figure is 76 to 78 °C.
As for `Cc1ccnc2c1nc(-c1cccnc1N)n2-c1ccc(CC(=O)Nc2cccc(F)c2)cc1`, the figure is 241 to 243 °C.
`COC1C(O)C=C(C)C(OC(=O)c2ccccc2)CC1(C)C` (centres undefined) yielded a melting point of 82.5 to 83.5 °C.
For `CCCCCc1csc2cc(OC)ccc12` the value was 43 to 45 °C; for `CCc1cc2c(s1)N(C(=O)NCCN(C)C)CCN=C2c1ccccc1Cl`, 160 to 162 °C.
As for `O=C1COc2ccc(C3=Cc4ccc(NCCO)cc4SC3c3ccccc3)cc2N1` (centres undefined), the figure is 201 to 202 °C.
Consider `CN(C)CCNc1nc(Nc2cccc(NS(C)(=O)=O)c2)nc2[nH]cnc12`, for which the melting point was in the range of 191 to 195 °C.
With `COC(=O)C=CC=Cc1ccccc1CNC(=O)OC(C)(C)C`, the melting point was in the range of 96 to 97.5 °C.
For `OCc1cn(-c2ccc(SC(F)(F)F)c(Cl)c2)cn1` the value was 105 to 106 °C; for `CCCOc1ccc(-c2ccc3c(c2)C=C(C(=O)Nc2ccc(CN(C)C4CCOCC4)cc2)CCN3C)cc1`, 149 to 151 °C.
`Cc1cccc2ncn(C3CCC(=O)NC3=O)c(=O)c12` (centres undefined) registered a melting point of 262 to 264 °C.
For `Oc1ccc(O)c2nccnc12` the value was 234 to 236 °C.
As for `N#Cc1sc2c(Cl)cccc2c1Cl`, the figure is 124 to 128 °C; as for `CNc1nc(Cl)c(Cl)c(N2CCN(C(=O)OC(C)(C)C)CC2)n1`, 129 to 131 °C; as for `CCNC(=O)C1CC(n2cnc3c(NC(CC)Cc4ccc(Cl)s4)ccnc32)C(O)C1O` (centres undefined), 77 to 85 °C.
In turn, `CN(C)CCCCNC(=O)Cn1ncc(-c2ccccc2)c1-c1ccccc1` came in with a melting point of 77 to 79 °C.
For `CCOC(=O)CC(O)c1ccc([N+](=O)[O-])c(OC)c1` (centres undefined) the value was 54 to 56 °C.
For `Cc1cc(C)c2ncn(/C=C/C(=O)O)c(=O)c2c1` the value was 284 to 288 °C; for `O=C(O)c1c[nH]c2oc3ccccc3c(=O)c2c1=O`, 335 to 340 °C.
For `Cc1c(C#N)cc(C(C)(C)C)c(O)c1C(=O)Nc1ccc(S(=O)c2ccc(Br)cc2)cc1C(F)(F)F` (centres undefined) the value was 178 to 180 °C.
For the compound `COCCNc1cc(C)n(COC)c(=O)c1[N+](=O)[O-]`, the melting point was in the range of 172 to 173 °C.
As for `CCOC(=O)CCCCC(NS(=O)(=O)c1ccc(C)cc1)c1ccc2ccccc2c1` (centres undefined), the figure is 87 to 91 °C; as for `CC(C)(C)c1ccc(C(=O)Nc2cn3nc(NCCO)ccc3n2)cc1`, 231 to 233 °C; as for `CN(C)C=Nc1nc(Cl)c(N=CN(C)C)c(Cl)n1`, 116 to 119 °C.
For `CC(C)CC1C(OC2CCCCO2)CC(=O)N1C(=O)OC(C)(C)C` (centres undefined) the value was 81 to 83 °C.
For `O=C1NC(=O)c2ccc(Br)cc2/C1=C/c1cc(Br)c(O)c(Br)c1` the value was 167 to 168 °C.
`c1cc(NC2=NCCO2)c2occc2c1` had a melting point of 124 to 126 °C.
For `COc1ccc(CCN2CCC(C(O)c3nc4ccccc4s3)CC2)cc1` (centres undefined) the value was 127 to 129 °C; for `O=C1c2ccccc2S(=O)(=O)N1CCCCOc1ccc(OCc2ccccc2)cc1`, 82 to 84 °C.
Take `Cc1ccc(S(=O)(=O)Nc2ccc(C#N)cc2[N+](=O)[O-])cc1`: the melting point was in the range of 150 to 152 °C.
As for `CCOC(=O)COc1ccc(N2CCN(S(=O)(=O)c3ncn(C)c3Cl)CC2)cc1`, the figure is 148 to 149 °C.
As for `O=C(Oc1cccc(C(F)(F)F)c1)n1c2c(c(=O)n(C3CCCCO3)c1=O)CCC2` (centres undefined), the figure is 130 °C; as for `CCC1CC2=C(CCC(=O)C2)C2CCC3(C)C(=CCC3O)C12` (centres undefined), 102 to 105 °C; as for `COc1ccc(-c2cc(-c3ccc(F)cc3)ccc2C(=O)O)cc1OC`, 210 °C.
Regarding `CC(O)=C(C#N)C(=O)Nc1cc(Cl)ccc1Cl`, the melting point fell in the range of 143 to 144 °C.
`NC1=NS(=O)(=O)Nc2cccc(OCC3(NC(=O)c4ccncc4)CCCC3)c21`: the melting point was > 250 °C.
Consider `O=[N+]([O-])c1ccc2oc(CCC(F)(F)F)cc2c1`, for which the melting point lay in the range of 70 to 71 °C.
For `CNC(=O)c1ccc(C=CC(=O)NCC(=O)N(C)c2ccc(Cl)c(COc3cccc4c(OCC(=O)O)cc(C)nc34)c2Cl)cc1` the value was 233 to 257 °C; for `CCCCCc1c(/C=C/C(=O)Oc2ccc([N+](=O)[O-])cc2)oc2cc(OC)ccc12`, 120 to 122 °C; for `CC(=O)Nc1nc(NCCSC(C)=O)n[nH]1`, 127 to 130 °C.
Regarding `COCC[C@H]1CN(C2=Nc3ccccc3Nc3ccc(C(F)(F)F)cc32)CCN1`, the melting point was 71 to 82 °C.
As for `COC(=O)c1ccc(Cn2c(=O)c(-c3c(Cl)cccc3Cl)cc3cnc(N)nc32)cc1`, the figure is 235 to 237 °C; as for `O=C(Oc1ccccc1)N1CCC(S(=O)(=O)c2ccccc2F)CC1`, 160 to 161 °C.
For `COc1ccc(Cn2cnc3c(-c4ccco4)nc(N(C)C)nc32)cc1` the value was 163 to 164 °C.
In turn, `CCOC(=O)COCCn1c(=O)[nH]c2ccccc2c1=O` had a melting point of 115 to 116 °C.
For `CCCCCCCCCCCCCCCCCNC(=O)O[C@@H]1CCO[C@H]1COCc1ccccc1` (relative stereo) the value was 54 to 56 °C; for `NC(=O)Cc1c(N)cc(Br)cc1OCc1ccccc1`, 185 °C; for `CC(C)(C)OC(=O)N1CCC(CCNC(=O)c2noc(-c3ccc(C#N)cc3)n2)CC1`, 138 to 139 °C.
As for `CC(C)(C)c1cc2c(c(C(C)(C)C)c1)OP(Cl)Oc1c(cc(C(C)(C)C)cc1C(C)(C)C)C2`, the figure is 227 to 230 °C.
`CC(C)(C)C(OC(=O)Cl)=C(Oc1ccc(Cl)cc1)n1cncn1`: the melting point is 159 to 161 °C.
As for `CCOC(=O)COc1ccc(CBr)cc1`, the figure is 44 to 45 °C; as for `CC(C)(C)C(=O)C(Cc1cccnc1)Oc1ccc(Cl)cc1` (centres undefined), 77 to 79 °C.

The record behind these values is a melting point compilation (Tetko et al.; mined from patent text by program, amines drawn as free bases though some values may be those of a salt).
